Source: patent publication US9339486B2, “Heterocyclic modulators of cannabinoid receptors” (THE CLEVELAND CLINIC FOUNDATION, priority 2008, dated 2016)
Like-named read-outs stand apart in the source and are kept apart here.

Columns and labels:
[1] = target: hCB2 (human CB2) receptors (Homo sapiens (Human), UniProt P34972); assay: GTPγ[35S] functional assay, CHO membrane extracts hCB2; assay type: biochemical
Description: (§1) Functional activity was evaluated using GTPγ[^35S] assay in CHO membrane extracts expressing recombinant hCB1 (human CB1) receptors or hCB2 (human CB2) receptors. The assay relies on the binding of GTPγ[^35S], a radiolabeled nonhydrolyzable GTP analogue, to the G protein upon binding of an agonist of the G-protein-coupled receptor. In this system, agonists stimulate GTPγ[^35S] binding whereas neutral antagonist have no effect and inverse agonists decrease GTPγ[^35S] basal binding.
(§2) The compound of Example 3 was solubilized in 100% DMSO at a concentration of 10 mM within 4 hours of the first testing session (master solution). A predilution for the dose response curve was performed in 100% DMSO and then diluted 100 fold in assay buffer at a concentration 2 fold higher than the concentration to be tested. […] For GTPγS membranes were mixed with GDP diluted in assay buffer to give 30 μM solution (volume:volume) and incubated for at least […] on ice. In parallel, GTPγ[^35S] (GE Healthcare, Catalogue number SJ1308) were mixed with the beads (PVT-WGA (GE Healthcare, RPNQ001)), diluted in assay buffer at 50 mg/ml (0.5 mg/10 μl) (volume:volume) just before starting the reaction. […] Then the plates were centrifuged for 10 min at 2000 rpm and counted for 1 min/well with a PerkinElmer TopCount reader. […]

[2] = target: hCB1 (human CB1) receptors (Homo sapiens (Human), UniProt P21554); assay: GTPγ[35S] functional assay, CHO membrane extracts hCB1; assay type: biochemical
Description: as §1, §2

[3] = tested on: paclitaxel-induced neuropathic pain model; assay: animal or person; assay type: in vivo, rat; settings: for ED50: Rattus norvegicus, ip
Description: Groups of rats received daily i.p. injections of either vehicle or 1.0 mg/kg paclitaxel daily for four consecutive days for a final cumulative dose of 4 mg/kg; using an injection volume of 1 ml/kg. Polomano, R. C., et al., A Painful Peripheral Neuropathy in the Rat Produced by the Chemotherapeutic Drug, Paclitaxel, Pain, 2001, 94:293-304. The vehicle used in our experiments was the same vehicle used clinically for paclitaxel injections and is composed of a mixture of 10% saline and Cremophor EL® and […]. Baseline responses to mechanical stimulation of the hindpaw (see below) were established on day zero and continued daily until the development of neuropathy was confirmed.
Rats were placed in a compartment with a wire mesh bottom and allowed to acclimate for a minimum of 30 min before testing. Mechanical sensitivity was assessed using a series of Von Frey filaments with logarithmic incremental stiffness (0.41, 0.70, 1.20, 2.00, 3.63, 5.50, 8.50, and 15.1 g) (Stoelting, Wood Dale, Ill.) as previously described, and 50% probability withdrawal thresholds were calculated with the up-down method. Chaplan, S. R., et al., Quantitative Assessment of Tactile Allodynia in the Rat Paw, J. Neurosci. Methods, 1994, 53:55-63; Dixon, W., The Up-and-Down Method for Small Samples, J. Am. Stat. Assoc., 1965, 60:967-78. In brief, beginning with the 2.0-g probe, filaments were applied to the plantar surface of a hind paw for 6-8 s, in an ascending or descending order after a negative or positive withdrawal response, respectively. Six consecutive responses from the first change in the response were used to calculate the withdrawal threshold (in grams). In cases where response thresholds fell outside the range of detection, 15.00 and 0.25 g were, respectively, assigned for continuous negative or positive responses to the limit of stimuli. The percent maximal possible effect (% MPE) was calculated as ([postdrug threshold−baseline threshold]/[cutoff threshold (15 g)−baseline threshold])×100.
To determine sensitivity to noxious heat, rats were placed in plexiglass enclosures on a transparent glass surface maintained at 30° C. and allowed to acclimate for 30 min. A thermal testing apparatus, consisting of a heat-emitting projector lamp and an electronic timer, was used. The device was activated after the lamp is placed directly beneath the planter surface of the hindpaw. The paw withdrawal latency in response to the radiant heat was recorded by a digital timer. A cutoff of 30 s was used to prevent potential tissue damage. After the baseline was measured, three groups of naïve rats (n=10) received 1.0, 3.0, or 10 mg/kg of the compound of Example 3 i.p. Response latencies were determined twice for each rat before drug injection and at 5, 10, 15, 30, 45, 60, 90 and 120 min after IP injection. The percent maximal possible effect (% MPE) was calculated as ([postdrug latency−baseline latency]/[cutoff time (30 s)−baseline latency])×100.
Statistical analyses were carried out using BMDP 2007 (Statistical Solutions, Saugus, Mass., USA) and Graph Pad Prism (version 4.03; Graph Pad Software Inc., San Diego, Calif., USA). Data were analyzed using one-way ANOVA, repeated measures ANOVA, or t-test where appropriate. If ANOVA was significant, Tukey-Kramer post hoc analysis was used for multiple group comparison. Area under the curve (AUC) was calculated using the trapezoidal rule. The results are presented as mean±s.e. mean and were considered significant at P<0.05. Analyses of the dose-response curves and statistics were obtained using the pharmacologic software programs of Tallarida and Murray and included calculation of the ED50 values and their 95% confidence intervals (CI). Tallarida, R. J., et al., Manual of Pharmacologic Calculations With Computer Programs, Second ed. New York: Springer-Verlag, 1987.

## CC1(Cc2ccccc2)COc2cc(C(=O)N3CCCCC3)ccc21 (centres unmarked) [Example 3, 3-benzyl-3-methyl-2,3-dihydrobenzofuran-6-carboxylic acid-piperidine amide]
[1]
  Emax: 88%
[1]; read-out: Agonist EC50 (mean ± s.e. mean) GTPγ[35S] functional assays hCB2
  EC50: 128 nM
[2]
  agonistic or antagonistic activities at hCB1 receptors: did not result in any agonistic or antagonistic activities
[2]; read-out: Agonist EC50 (mean ± s.e. mean) GTPγ[35S] functional assays hCB1
  EC50: > 10 µM
[3]; 20 min, read-out: ED50 for suppressing thermal hyperalgesia
  ED50: 13.5 mg/kg
[3]; read-out: ED50 tactile allodynia (% MPE withdrawal threshold AUC)
  ED50: 24 mg/kg
[3]; i.p.
  time of maximal suppression: 20 min
[3]; i.p., dose-dependent
  effect on paclitaxel-evoked thermal hyperalgesia and mechanical allodynia relative to vehicle: suppressed
